From ChEMBL document CHEMBL3751677, “Cardanol-derived AChE inhibitors: Towards the development of dual binding derivatives for Alzheimer's disease” (Eur J Med Chem, 2016)
The source made the active and inactive calls. The rule behind the calls is not given here.

What was measured:
[1] = molecular target: Cholinesterase (Equus caballus, UniProt P81908); test: Inhibition of horse butyrylcholine esterase preincubated for 10 mins followed by the addition of […] as substrate measured after 5 mins by Ellman's method
[2] = tested on: HT-29; test: Cytotoxicity against human HT-29 cells at 10 uM by LDH release assay; format: cell-based; details: ht-29, 10 µM
[3] = molecular target: T1, Acetylcholinesterase (Electrophorus electricus, UniProt O42275); test: Non-competitive inhibition of electric eel acetylcholine esterase using […] as substrate by Ellman's method
[4] = Selectivity index, ratio of IC50 for horse butyrylcholine esterase to IC50 for electric eel acetylcholine esterase
[5] = molecular target: T1, Acetylcholinesterase; test: Inhibition of electric eel acetylcholine esterase preincubated for 10 mins followed by the addition of […] as substrate measured after 5 mins by Ellman's method
[6] = molecular target: T1, Acetylcholinesterase; test: Mixed inhibition of electric eel acetylcholine esterase using […] as substrate by Ellman's method
[7] = tested on: HT-29; test: Cytotoxicity against human HT-29 cells assessed as LDH release at 100 uM after 24 hrs; format: cell-based; details: ht-29, 24 h
[8] = molecular target: Amyloid-beta precursor protein (Homo sapiens) (UniProt P05067); test: Inhibition of Amyloid beta42 (unknown origin) self aggregation assessed as Abeta fibril formation at 50 uM for 24 hrs by ThT-based fluorometric assay
[9] = molecular target: Acetylcholinesterase (Homo sapiens, UniProt P22303)
Description: Inhibition of human acetylcholine esterase preincubated for 10 mins followed by the addition of 550 uM of acetylcholine iodide as substrate measured after 20 mins by Ellman's method

[10] = tested on: HT-29; test: Cytotoxicity against human HT-29 cells at 10 times IC50 by LDH release assay; format: cell-based
[11] = Cytotoxicity against human HT-29 cells assessed as decrease in cell viability after 24 hrs by calcein-AM/propidium iodide based fluorescence analysis; details: read-out: INH

T1 sequence (O42275 whole entry): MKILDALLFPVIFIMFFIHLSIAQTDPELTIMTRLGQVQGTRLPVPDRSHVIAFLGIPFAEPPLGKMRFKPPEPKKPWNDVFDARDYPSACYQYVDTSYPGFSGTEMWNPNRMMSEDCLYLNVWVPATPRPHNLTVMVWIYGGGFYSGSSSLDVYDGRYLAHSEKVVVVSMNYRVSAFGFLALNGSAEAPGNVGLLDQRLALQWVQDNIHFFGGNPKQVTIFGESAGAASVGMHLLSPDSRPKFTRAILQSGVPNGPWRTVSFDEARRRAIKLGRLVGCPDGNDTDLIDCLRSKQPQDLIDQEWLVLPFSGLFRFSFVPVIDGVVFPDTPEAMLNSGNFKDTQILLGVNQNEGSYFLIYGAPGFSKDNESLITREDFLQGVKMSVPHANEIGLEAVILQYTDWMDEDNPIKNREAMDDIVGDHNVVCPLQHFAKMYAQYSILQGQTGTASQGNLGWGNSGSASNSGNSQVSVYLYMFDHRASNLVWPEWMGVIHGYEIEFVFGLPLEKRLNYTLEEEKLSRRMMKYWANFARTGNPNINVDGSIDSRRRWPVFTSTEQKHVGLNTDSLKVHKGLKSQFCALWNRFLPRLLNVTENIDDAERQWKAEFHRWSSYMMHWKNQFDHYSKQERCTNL
Chain of Cholinesterase (P81908 whole entry): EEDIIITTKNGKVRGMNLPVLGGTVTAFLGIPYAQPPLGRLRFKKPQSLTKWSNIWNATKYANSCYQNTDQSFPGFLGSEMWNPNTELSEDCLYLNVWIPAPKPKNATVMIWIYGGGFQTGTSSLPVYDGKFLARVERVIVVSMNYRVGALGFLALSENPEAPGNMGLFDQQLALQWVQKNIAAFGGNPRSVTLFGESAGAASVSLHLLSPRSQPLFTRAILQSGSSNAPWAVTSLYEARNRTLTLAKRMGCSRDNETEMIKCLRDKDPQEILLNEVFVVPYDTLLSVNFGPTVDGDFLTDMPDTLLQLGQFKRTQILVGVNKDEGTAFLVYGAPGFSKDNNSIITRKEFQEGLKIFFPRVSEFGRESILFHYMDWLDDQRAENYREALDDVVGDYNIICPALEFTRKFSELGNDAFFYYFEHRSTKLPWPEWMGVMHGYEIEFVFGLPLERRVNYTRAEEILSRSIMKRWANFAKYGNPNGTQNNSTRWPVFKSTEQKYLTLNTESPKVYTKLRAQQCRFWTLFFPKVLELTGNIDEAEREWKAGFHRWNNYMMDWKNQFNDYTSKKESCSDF
Chain of Acetylcholinesterase (Homo sapiens, UniProt P22303) (P22303 whole entry): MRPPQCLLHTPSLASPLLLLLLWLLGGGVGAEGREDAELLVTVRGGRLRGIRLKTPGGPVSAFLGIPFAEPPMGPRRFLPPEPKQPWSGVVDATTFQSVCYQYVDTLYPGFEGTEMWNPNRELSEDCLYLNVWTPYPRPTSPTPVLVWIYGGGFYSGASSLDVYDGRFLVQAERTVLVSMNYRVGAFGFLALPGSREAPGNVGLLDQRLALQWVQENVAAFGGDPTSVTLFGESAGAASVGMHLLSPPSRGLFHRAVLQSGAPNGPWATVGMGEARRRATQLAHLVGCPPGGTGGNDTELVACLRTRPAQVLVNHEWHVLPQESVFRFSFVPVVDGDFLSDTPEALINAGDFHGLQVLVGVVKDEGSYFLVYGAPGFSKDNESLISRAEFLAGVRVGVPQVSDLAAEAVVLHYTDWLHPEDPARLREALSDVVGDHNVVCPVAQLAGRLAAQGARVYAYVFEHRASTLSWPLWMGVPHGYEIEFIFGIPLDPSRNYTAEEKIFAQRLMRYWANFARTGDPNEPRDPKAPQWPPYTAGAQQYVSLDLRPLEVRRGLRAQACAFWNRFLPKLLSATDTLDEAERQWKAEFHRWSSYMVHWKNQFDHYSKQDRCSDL
Chain of Amyloid-beta precursor protein (Homo sapiens) (P05067 whole entry): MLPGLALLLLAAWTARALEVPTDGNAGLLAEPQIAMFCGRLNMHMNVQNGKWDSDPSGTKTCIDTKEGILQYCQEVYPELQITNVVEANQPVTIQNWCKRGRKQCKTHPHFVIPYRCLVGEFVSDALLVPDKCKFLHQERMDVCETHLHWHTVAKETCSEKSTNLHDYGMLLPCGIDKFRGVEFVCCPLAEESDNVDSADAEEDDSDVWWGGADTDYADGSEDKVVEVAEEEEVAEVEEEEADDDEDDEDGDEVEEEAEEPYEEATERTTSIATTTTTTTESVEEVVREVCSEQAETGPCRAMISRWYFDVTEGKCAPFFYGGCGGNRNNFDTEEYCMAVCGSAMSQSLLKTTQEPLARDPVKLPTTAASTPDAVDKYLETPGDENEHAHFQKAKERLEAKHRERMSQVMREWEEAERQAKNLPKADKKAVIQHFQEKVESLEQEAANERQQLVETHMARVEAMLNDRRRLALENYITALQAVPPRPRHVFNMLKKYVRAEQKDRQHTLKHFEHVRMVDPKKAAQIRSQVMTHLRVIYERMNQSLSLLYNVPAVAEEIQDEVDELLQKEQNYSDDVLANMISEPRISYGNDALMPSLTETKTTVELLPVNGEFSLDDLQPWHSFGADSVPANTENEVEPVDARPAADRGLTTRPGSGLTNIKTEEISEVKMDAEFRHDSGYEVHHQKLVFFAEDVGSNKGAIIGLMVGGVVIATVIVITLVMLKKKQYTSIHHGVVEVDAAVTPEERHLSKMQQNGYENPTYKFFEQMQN

| SMILES | IC50 [1] | Activity [2] | Ki [3] | Ratio IC50 [4] | IC50 [5] | Ki [6] | Activity [7] | inhibition [8] | IC50 [9] | Activity [10] | cytotoxicity at 24 h [11] |
| --- | --- | --- | --- | --- | --- | --- | --- | --- | --- | --- | --- |
| COc1cccc(CCCCCCCCN2CCC(OC(=O)N(C)C)C2)c1 (racemic) | 22.8 µM | Non-toxic | 8.6 µM | 1.7 | 13.7 µM |  |  |  |  |  |  |
| CCN(CCCCCCCCc1cccc(OC)c1)Cc1ccccc1 | 8 µM | Non-toxic | 10.4 µM | 0.5 | 16.1 µM |  |  |  |  |  |  |
| COc1cccc(CCCCCCCCN2CCCC(OC(=O)N(C)C)C2)c1 (racemic) | 23.5 µM | Non-toxic | 22.4 µM | 1.7 | 14.3 µM |  |  |  |  |  |  |
| COc1cccc(CCCCCCCCN2CCCC(OC(C)=O)C2)c1 (racemic) | 19 µM | Non-toxic | 19 µM | 1.2 | 16.1 µM |  |  |  |  |  |  |
| COc1cccc(CCCCCCCCN2CCCC2)c1 | 16.4 µM | Non-toxic |  | 0.8 | 19.6 µM | 22.4 µM |  |  |  |  |  |
| CCN(CCCCCCCCc1cccc(OC)c1)Cc1ccccc1OC | 5 µM | Non-toxic | 24.4 µM | 0.8 | 6.6 µM |  | Toxic | inactive | 5.65 µM | Toxic |  |
| COc1cccc(CCCCCCCCNCc2ccccc2OC)c1 | 3.1 µM | Non-toxic | 17 µM | 0.2 | 17.2 µM |  | Toxic |  |  |  | 46.3% |
